The record followed here is publication PMC5664251, “Synthesis and Cytotoxic Evaluation of Steroidal Copper (Cu (II)) Complexes” (Bioinorganic Chemistry and Applications, 2017).

Common to all, as to assay type: cell-based
Series [1] relates to Bel-7404 (human liver carcinoma). The series can be described thus: MTT antiproliferative/cytotoxicity assay, Bel-7404. The conditions noted are these: mean of three independent determinations. How it is done:
(§1) Melting points were determined on an X4 apparatus (Beijing Tech Instrument Co. Ltd., Beijing, China) and were uncorrected. The ^1H and ^13C NMR spectra were recorded in CDCl3 on a Bruker AV-600 spectrometer at working frequencies of 600 and 150 MHz and a Bruker AV-300 spectrometer at working frequencies of 300 and 75 MHz, respectively. Chemical shifts are expressed in parts per million (δ) values and coupling constants (J) in Hertz. Infrared spectra were measured with a Thermo Scientific Nicolet IS-10 Spectrophotometer (Thermo Scientific, USA). HREIMS was measured on an Agilent 6210 TOFMS instrument (Agilent Technologies, USA). The cell proliferation assay was undertaken by a MTT method using 96-well plates on a […] MK3 analysis spectrometer (Thermo Scientific, Shanghai, China).
(§2) The detailed procedure had been reported in our previous work.

Series [2] relates to HeLa (human cervical carcinoma). Description: MTT antiproliferative/cytotoxicity assay, HeLa. As to conditions: mean of three independent determinations. The protocol: as §1, §2
Series [3] can be described thus: MTT cytotoxicity assay, 293T normal cells. As to conditions: human, HEK-293T normal kidney epithelial cells, mean of three independent determinations. The protocol:
as §1, §2
Background: Tetrazolium dyes change colour on reduction, which living cells bring about.

On to `CC12CCC3c4ccc(O)cc4CCC3C1CCC2=NNC(N)=S` (centres unmarked) [Compound 1], for which the IC50 (usually the midpoint of a concentration-inhibition curve) in series [1] is 19 µM; in series [2], 34 µM.

As for `CC(=O)Oc1ccc2c(c1)CCC1C2CCC2(C)C(=NNC(N)=S)CCC12` (centres unmarked) [Compound 2], the IC50 in series [1] was more than 200 µM; in series [2], 42 µM; in series [3] it was more than 200 µM.
